Measurements: US4536510A, “Method of antagonizing the effects of thromboxane” (Smith Kline Beckman Corporation, priority 1983, dated 1985)
Like-named read-outs stand apart in the source and are kept apart here. One block for each compound: values may come before it.

How the values were obtained:
[1] = tested on: isolated guinea pig lung parenchymal strips; experiment: Antagonism of contractions elicited by carbocyclic thromboxane A2 (CTA2), lung parenchymal strips; settings: for contractile response (mg tension): lung parenchyma, Compound I 1×10^-5 M, 30 min
Procedure: (§1) Isolated guinea pig tracheas or paired lung parenchymal strips were attached via silk suture to force displacement transducers for recording changes in isometric tension. The tissues were equilibrated for one hour in modified Krebs' buffer at 37.5° C. and aerated with 95% O2 /5% CO2. Then, the tissues were equilibrated for 30 additional minutes with N,N'-bis[7-(3-chlorobenzeneaminosulfonyl)-1,2,3,4-tetrahydroisoquinolyl]disulfonylimide (Compound I) (1×10^-5 M) or buffer. Contraction of the tissues was then elicited by increasing the bath concentration of CTA2 in a cumulative fashion. The contractile responses were recorded as changes in mg tension.

[2] = tested on: isolated guinea pig tracheas; experiment: Antagonism of contractions elicited by carbocyclic thromboxane A2 (CTA2), trachea; settings: for contractile response (mg tension): trachea, Compound I 1×10^-5 M, 30 min
Procedure: as §1

[3] = tested on: canine bronchoconstriction induced by U-44069; experiment: Protection in a drug-induced (U-44069) canine bronchospasm; type: in vivo, mongrel dogs; settings: for Decrease in ability of lungs to expand easily / Increase in resistance to movement of air into the lungs: anesthetized dogs
Procedure: Bronchopulmonary responses to these agents were measured by computer analyses in 5 spontaneously breathing, anesthetized mongrel dogs. In a dose range of 0.3-3.0 μg/kg i.v., the endoperoxide analog produced dose-related alterations in pulmonary airway resistance, dynamic lung compliance, expiratory airflow rate, tidal volume and respiratory frequency. […] Inhibition by Compound I occurred in all pulmonary parameters calculated.

[4] = tested on: human platelet aggregation; experiment: Inhibition of human platelet aggregation in platelet-rich plasma; type: cell-based
Procedure: Platelet-rich plasma (PRP) and platelet-poor plasma (PPP) are prepared from citrated blood of drug-free human volunteers and are stored at room temperature for at least 30 minutes before use. Each PRP sample is preincubated two minutes at 37° C. prior to addition of N,N-bis[7-(3-chlorobenzeneaminosulfonyl)-1,2,3,4-tetrahydroisoquinolyl]disulfonylimide (Compound I) or agonists; Compound I is preincubated for 1 minute prior to addition of agonist. A dose response is determined for each agonist, and a concentration which gives a biphasic response is selected. Compounds are tested for inhibition of the response (control response) generated by this agonist concentration. A time is selected, and the height at which the various curves intersect this time line is measured and expressed in mm (a measure of light transmittance). The difference between the response of the control and that with inhibitor present is used to calculate percent inhibition. This value is plotted against inhibitor concentrations to determine the IC50 (the inhibitory concentration of Compound I which inhibits aggregation by 50%).

[5] = pretreat with Compound I 5 mg/kg i.v., then U-44069 0.3 μg/kg i.v.
[6] = pretreat with Compound I 5 mg/kg i.v., then U-44069 1.0 μg/kg i.v.
[7] = pretreat with Compound I 5 mg/kg i.v., then U-44069 3.0 μg/kg i.v.

IC50 ([4]; agonist A23187, human PRP, read-out: IC50, inhibition of secondary phase): 12 µM
IC50 ([4]; agonist Platelet Activating Factor (PAF), human PRP, read-out: IC50, inhibition of secondary phase): 4.5 µM
IC50 ([4]; agonist U-44069, human PRP, read-out: IC50, inhibition of primary phase): 2.5 µM
IC50 ([4]; agonist U-44069, human PRP, read-out: IC50, inhibition of secondary phase): 1.7 µM
IC50 ([4]; agonist arachidonic acid, human PRP, read-out: IC50, inhibition of primary phase): 19 µM
IC50 ([4]; agonist collagen, human PRP, read-out: IC50, inhibition of primary phase): 10 µM
SMILES: O=S(=O)(Nc1cccc(Cl)c1)c1ccc2c(c1)CN(S(=O)(=O)NS(=O)(=O)N1CCc3ccc(S(=O)(=O)Nc4cccc(Cl)c4)cc3C1)CC2 [Compound I, N,N'-bis[7-(3-chlorobenzeneaminosulfonyl)-1,2,3,4-tetrahydroisoquinolyl]disulfonylimide]
response to challenge with reference contractile agonist ([1]; lung parenchyma receiving Compound I, 1 × 10^-3 M histamine): responded normally
contractile response (mg tension) ([1]; CTA2 10^-6 M, control 181.5 ± 23.3): 0 mg tension
contractile response (mg tension) ([1]; CTA2 10^-7 M, control 103.5 ± 23.7): 0 mg tension
contractile response (mg tension) ([1]; CTA2 10^-8 M, control 45.5 ± 11.4): 0 mg tension
response to challenge with reference contractile agonist ([2]; trachea receiving Compound I, 1 × 10^-5 M carbachol): responded normally
contractile response (mg tension) ([2]; CTA2 10^-6 M, control 360.0 ± 89.8): 42.9 ± 20.2 mg tension
contractile response (mg tension) ([2]; CTA2 10^-7 M, control 125.0 ± 33.5): 0 mg tension
contractile response (mg tension) ([2]; CTA2 10^-8 M, control 0): 0 mg tension
Decrease in ability of lungs to expand easily [3, 5]: 5%
Increase in resistance to movement of air into the lungs [3, 5]: 14%
Decrease in ability of lungs to expand easily [3, 6]: 13%
Increase in resistance to movement of air into the lungs [3, 6]: 30%
Decrease in ability of lungs to expand easily [3, 7]: 28%
Increase in resistance to movement of air into the lungs [3, 7]: 56%
effect on U-44069-induced bronchospasm (all pulmonary parameters) ([3]; pretreatment with Compound I 5.0 mg/kg i.v., shift to the right of the control U-44069 curve): inhibition of the bronchospasm

SMILES: CCCCC[C@H](O)/C=C/[C@H]1[C@@H]2CO[C@@H](C2)[C@@H]1C/C=C\CCCC(=O)O [Compound U-44069, reference compound]
Decrease in ability of lungs to expand easily ([3]; U-44069 alone 0.3 μg/kg i.v.): 28%
Increase in resistance to movement of air into the lungs ([3]; U-44069 alone 0.3 μg/kg i.v.): 67%
Decrease in ability of lungs to expand easily ([3]; U-44069 alone 1.0 μg/kg i.v.): 56%
Increase in resistance to movement of air into the lungs ([3]; U-44069 alone 1.0 μg/kg i.v.): 333%
Decrease in ability of lungs to expand easily ([3]; U-44069 alone 3.0 μg/kg i.v.): 70%
Increase in resistance to movement of air into the lungs ([3]; U-44069 alone 3.0 μg/kg i.v.): 549%
